# From patent US20130012432A1, “Peptides for Treatment of Obesity” (Novo Nordisk A/S, priority 2010, published 2013)
# Positions of bridges follow the written chain, without caps; N, C: chain ends. Non-standard residues stand in square brackets, D forms with d. Residues, ends and D or L forms follow the SMILES beside them. Groups on a side chain read outwards from the residue. *: point of attachment. Palmitoyl(16-(5-tetrazolyl)) = O=C(CCCCCCCCCCCCCCCc1nnn[nH]1)*; Lys(CH2CO2H)2 = N[C@@H](CCCCN(CC(=O)O)CC(=O)O)C(=O)O; X1 = O=C(O)CCCCCCCCCCCCCCCCC(=O)NCCOCCOCCN*; C16 diacid = O=C(O)CCCCCCCCCCCCCCC(=O)*; Orn = NCCC[C@H](N)C(=O)O; Dab = NCC[C@H](N)C(=O)O; AEEA = NCCOCCOCC(=O)O
# Assay: physchem
# Procedure: From a stock solution in vehicle, either H2O or 10 mM phosphate, containing 1 mg (as weighed) compound per ml, 8-11 aliquots are withdrawn and pH-adjusted individually with HCl/NaOH, to cover the whole pH range.
# [1] = pH 6.7, Solubility Conc., pH 6.7, vehicle 10 mM phosphate
# [2] = pH 7.2, Solubility Conc., pH 7.2, vehicle 10 mM phosphate
# [3] = pH 8.1, Solubility Conc., pH 8.1, vehicle 10 mM phosphate
smiles,measurement,setting,value
"CC(=O)N[C@H]1CC(=O)NCCC[C@@H](C(=O)N2CCC[C@H]2C(=O)N2CCC[C@H]2C(=O)N[C@@H](CCCNC(=N)N)C(=O)N[C@@H](CC(=O)O)C(=O)N[C@@H](CCCCN(CC(=O)O)CC(=O)O)C(=O)N[C@@H](CCCCNC(=O)COCCOCCNC(=O)CCCCCCCCCCCCCCCc2nnn[nH]2)C(N)=O)NC(=O)[C@H](Cc2c[nH]c3ccccc23)NC(=O)[C@H](CCCNC(=N)N)NC(=O)[C@@H](Cc2ccccc2)NC(=O)[C@H](Cc2c[nH]cn2)NC1=O [Example 2, Ac-c[Asp-His-D-Phe-Arg-Trp-Orn]-Pro-Pro-Arg-Asp-Lys(biscarboxymethyl)-Lys[(2-{2-[16-(tetrazol-5-yl)hexadecanoylamino]ethoxy}ethoxy)acetyl]-NH2] (Ac-DH[dF]RW[Orn]PPRD[Lys(CH2CO2H)2]K([AEEA-Palmitoyl(16-(5-tetrazolyl))])-NH2; lactam 1-6)",solubility,"pH 5.8, Solubility Conc.",21 µM
same,solubility,"pH 6.4, Solubility Conc.",26 µM
same,solubility,"pH 7, Solubility Conc.",67 µM
same,solubility,"pH 7.2, Solubility Conc.",172 µM
same,solubility,"pH 7.3, Solubility Conc.",267 µM
same,solubility,"pH 7.4, Solubility Conc.",465 µM
same,solubility,"pH 7.6, Solubility Conc.",454 µM
same,solubility,"pH 7.9, Solubility Conc.",458 µM
"CC(=O)N[C@H]1CCNC(=O)C[C@@H](C(=O)N2CCC[C@H]2C(=O)N[C@@H](CO)C(=O)N[C@@H](CO)C(=O)N[C@@H](CO)C(=O)N[C@@H](CCCCN(CC(=O)O)CC(=O)O)C(=O)N[C@@H](CO)C(=O)N[C@@H](CO)C(=O)NCCOCCOCCNC(=O)CCCCCCCCCCCCCCCCC(=O)O)NC(=O)[C@H](Cc2c[nH]c3ccccc23)NC(=O)[C@H](CCCNC(=N)N)NC(=O)[C@@H](Cc2ccccc2)NC(=O)[C@H](Cc2c[nH]cn2)NC1=O [Example 3, Ac-c[Dab-His-D-Phe-Arg-Trp-Asp]-Pro-Ser-Ser-Ser-Lys(biscarboxymethyl)-Ser-Ser-NH(2-{2-[2-(17-carboxyheptadecanoylamino)ethoxy]ethoxy}ethyl)] (Ac-[Dab]H[dF]RWDPSSS[Lys(CH2CO2H)2]SS-X1; lactam 1-6)",solubility,"pH 4.9, Solubility Conc., pH 4.9, vehicle 10 mM phosphate",24 µM
same,solubility,"pH 5.6, Solubility Conc., pH 5.6, vehicle 10 mM phosphate",32 µM
same,solubility,"pH 6.1, Solubility Conc., pH 6.1, vehicle 10 mM phosphate",54 µM
same,solubility,[1],154 µM
same,solubility,"pH 6.9, Solubility Conc., pH 6.9, vehicle 10 mM phosphate",295 µM
same,solubility,"pH 7.1, Solubility Conc., pH 7.1, vehicle 10 mM phosphate",396 µM
same,solubility,[2],401 µM
same,solubility,"pH 7.4, Solubility Conc., pH 7.4, vehicle 10 mM phosphate",396 µM
same,solubility,"pH 7.7, Solubility Conc., pH 7.7, vehicle 10 mM phosphate",345 µM
same,solubility,[3],360 µM
"CC(=O)N[C@H]1CCCNC(=O)CC[C@@H](C(=O)N2CCC[C@H]2C(=O)N2CCC[C@H]2C(=O)N[C@@H](CCCNC(=N)N)C(=O)N[C@@H](CC(=O)O)C(=O)N[C@@H](CCCCN(CC(=O)O)CC(=O)O)C(=O)N[C@@H](CCCCNC(=O)COCCOCCNC(=O)CCCCCCCCCCCCCCCc2nnn[nH]2)C(N)=O)NC(=O)[C@H](Cc2c[nH]c3ccccc23)NC(=O)[C@H](CCCNC(=N)N)NC(=O)[C@@H](Cc2ccccc2)NC(=O)[C@H](Cc2c[nH]cn2)NC1=O [Example 8, Ac-c[Orn-His-D-Phe-Arg-Trp-Glu]-Pro-Pro-Arg-Asp-Lys(biscarboxymethyl)-Lys[(2-{2-[16-(tetrazol-5-yl)hexadecanoylamino]ethoxy}ethoxy)acetyl]-NH2] (Ac-[Orn]H[dF]RWEPPRD[Lys(CH2CO2H)2]K([AEEA-Palmitoyl(16-(5-tetrazolyl))])-NH2; lactam 1-6)",solubility,"pH 6.5, Solubility Conc.",35 µM
same,solubility,"pH 6.8, Solubility Conc.",44 µM
same,solubility,"pH 7, Solubility Conc.",91 µM
same,solubility,"pH 7.2, Solubility Conc.",268 µM
same,solubility,"pH 7.3, Solubility Conc.",482 µM
same,solubility,"pH 7.4, Solubility Conc.",551 µM
same,solubility,"pH 7.5, Solubility Conc.",538 µM
same,solubility,"pH 7.6, Solubility Conc.",582 µM
same,solubility,"pH 7.8, Solubility Conc.",556 µM
"CC(=O)N[C@H]1CCCNC(=O)C[C@@H](C(=O)N2CCC[C@H]2C(=O)N[C@@H](CO)C(=O)N[C@@H](CO)C(=O)N[C@@H](CO)C(=O)N[C@@H](CCCCN(CC(=O)O)CC(=O)O)C(=O)N[C@@H](CO)C(=O)N[C@@H](CO)C(=O)N[C@@H](CCCCNC(=O)COCCOCCNC(=O)CCCCCCCCCCCCCCC(=O)O)C(N)=O)NC(=O)[C@H](Cc2c[nH]c3ccccc23)NC(=O)[C@H](CCCNC(=N)N)NC(=O)[C@@H](Cc2ccccc2)NC(=O)[C@H](Cc2c[nH]cn2)NC1=O [Example 12, Ac-c[Orn-His-D-Phe-Arg-Trp-Asp]-Pro-Ser-Ser-Ser-Lys(biscarboxymethyl)-Ser-Ser-Lys({2-[2-(15-carboxypentadecanoylamino)ethoxy]ethoxy}acetyl)-NH2] (Ac-[Orn]H[dF]RWDPSSS[Lys(CH2CO2H)2]SSK([AEEA-C16 diacid])-NH2; lactam 1-6)",solubility,"pH 4.8, Solubility Conc., pH 4.8, vehicle 10 mM phosphate",228 µM
same,solubility,"pH 5.8, Solubility Conc., pH 5.8, vehicle 10 mM phosphate",300 µM
same,solubility,"pH 6.3, Solubility Conc., pH 6.3, vehicle 10 mM phosphate",400 µM
same,solubility,[1],431 µM
same,solubility,"pH 7, Solubility Conc., pH 7.0, vehicle 10 mM phosphate",426 µM
same,solubility,[2],479 µM
same,solubility,"pH 7.5, Solubility Conc., pH 7.5, vehicle 10 mM phosphate",405 µM
same,solubility,"pH 7.8, Solubility Conc., pH 7.8, vehicle 10 mM phosphate",480 µM
same,solubility,[3],439 µM
